Entries after “also recorded” stand apart in the source; their conditions may differ.
Tested on: late passage TERT-immortalized 7A chicken fibroblasts stably transfected with ggMYOD
Assay: Myotube formation (MyHC staining) of late passage 7A TERT ggMYOD fibroblasts in different media
Type: cell-based
Settings: 7A TERT ggMyoD cells, PDL >100; sodium butyrate 0.1 mM added to ME9
Description: This experiment was designed to assess expression of endogenous downstream myogenic factors (ggMyoG, ggMYMK, and ggMyHC1e) following transfection with a vector encoding ggMYOD in late passage (PDL >100) immortalized fibroblast cells compared to primary fibroblasts. TERT-immortalized 7A fibroblasts were cultured for PDL >100 prior to transfection. For these experiments, a vector including a PGK promoter driving expression of a nucleic acid sequence encoding ggMYOD was transfected into TERT-immortalized 7A chicken fibroblasts (“7A TERT”) or primary fibroblasts using Lipofectamine 3000. Each vector included a puromycin selection cassette to enable selection. Following transfection and selection (0.5 mg/mL puromycin for 4 days), fibroblasts were exposed either to differentiation media (i.e., DMEM/F-12, 2% horse serum) or proliferation media (i.e., ME9; referred to as “undifferentiated” sample (see also culture medias described in FIG. 2)) prior to being assessed for myogenic marker expression using qPCR.
To assess whether the late passage immortalized 7A chicken fibroblasts could be induced to form myotubes, the late passage immortalized 7A chicken fibroblasts stably transfected with ggMYOD (as described above; referred to as 7A TERT ggMYOD) were cultured in media: ME58, ME9, and ME9+0.1 mM sodium butyrate. In FIGS. 13A-C MyHC staining was used to aid identification of myotubes.

## CCCC(=O)[O-].[Na+] [sodium butyrate]
  differentiation capacity (myotube formation, MyHC staining): dramatic improvement in differentiation capacity; also recorded: significant increase in myogenic differentiation capacity

Source: patent US20230220347A1, “SCALING UP MYOGENIC TISSUE: LATE PASSAGE MYOGENICITY” (Upside Foods, Inc., priority 2021, published 2023)
